From US7410955B2, “Therapeutic use of agonist ligands specific to G2A receptor” (Biosynergen, Inc., priority 2002, dated 2008)

Experiments:
[1] = test system: neutrophils (human PMNs); test: IL-8 release induced by LPS in neutrophils (ELISA); assay type: cell-based; conditions: 15 μM and 30 μM, 1 hour before 1 μg/ml LPS, supernatant after 3 hours
Source text: Neutrophils were isolated from healthy adults using discontinuous percoll gradient according to the method of Szucs, S. et al. (J. Immunol. Methods, 167: 245-251, 1994). First, plasmas were separated from heparinized whole blood, and red blood cells were depleted by dextran sedimentation. Thereafter, leukocytes were layered over a percoll gradient with densities of 1.077 and 1.094 (Pharmacia, Sweden). Separated neutrophil layers were recovered from the percoll gradient interface, and then washed with HBSS (Hank's balanced salt solution, Sigma Chemical Co., USA). The remaining pellet was resuspended in RPMI 1640 medium supplemented with 10% FBS (fetal bovine serum) and 2 mM gentamicin. As a result of the examination of the cytospin stained with Wright-Giemsa (Sigma Chemical Co., USA), it was observed that the resuspension solution contained 95% or more neutrophils. Also, as a result of examination using trypan blue dye exclusion method, 98% or more neutrophils were observed. […]
The neutrophils and monocytes isolated in Examples <2-1> and <2-2> above were cultured in a 96-well plate to which RPMI1640 medium containing 10% FBS was added, at a concentration of 1×10^5 cells/well/0.2 ml, respectively. […] Then, the level of IL-8 was measured using ELISA kit (Biosource, USA).

[2] = test system: E. coli (DH5a); test: Bacteria-induced sepsis model; assay type: in vivo, ICR mice; conditions: 10 mg/kg subcutaneous, 2 and 14 hours after i.p. E. coli
Method: ICR mice (25-30 g in body weight; MJ Ltd.) were intraperitoneally injected with alive 10^8 cells/ml E. coli (DH5a) that were suspended in 0.5 ml of PBS (phosphate-buffered saline) to cause peritonitis, thereby inducing sepsis.
After the peritoneal cavity of mice had been exposed, it was washed with sterilized saline (2 ml). The resultant solution was diluted with HBSS (Sigma Chemical Co., USA) in a ratio of 1/1000, and then 10 μl of each diluted solution was spread on Trypticase Soy agar (BBL, Becton Dickinson Co., USA) plates. After overnight incubation at 37° C., colony forming unit (CFU) was measured.
14 ICR mice of bacteria-induced septicemia model according to Reference Example <1-1> a) were divided into two groups of 7 mice. 7 mice were administered with 1-stearoyl LPC (Sigma Chemical Co., USA) dissolved in 1% BSA (bovine serum albumin) solution containing no fatty acid in an amount of 10 mg/kg by subcutaneous injection, 2 and 14 hours after E. coli was intraperitoneally injected, respectively (experimental group). The remaining 7 mice were administered with 1% BSA solution containing no fatty acid of the same amount as above, instead of LPC, in the same manner (control group). […] Also, the number of intraperitoneal E. coli cells 24 hours after the intraperitoneal injection was measured in accordance with the method described in Reference Example 3.

[3] = test system: E. coli; test: In vitro antibacterial activity of LPC (CFU on LB media); assay type: cell-based; conditions: for CFU: 37° C., 12 hours
Method: Four petridishes per group were used. For a control group, only LB media was poured onto four 60-mm petridishes and hardened. The peritoneal cavity of mice according to Example <6-1> was washed with sterilized saline. The resultant solution was diluted with HBSS in a ratio of 1/100, and then 10 μl of the diluted solution was spread on the media for each group. Subsequently, after they had been incubated in a bacteria incubator maintained at 37° C. for 12 hours, colony forming unit (CFU) was visibly measured.

[4] = test system: myeloperoxidase (MPO) in pulmonary tissues; test: Systemic LPS-induced acute lung injury model, lung MPO activity; assay type: in vivo, ICR mice
Method: ICR mice (25-30 g in body weight; MJ Ltd.) were intraperitoneally injected with LPS (induced from E. coli 055:B5) in an amount of 1 mg/kg thereby inducing Sepsis.
The activity of myeloperoxidase (MPO), an indicator of neutrophils, in pulmonary tissues was determined according to the methods of Goldblum et al (J. Appl. physiol. 59: 1978, 1985) and Parey et al (J. Immunol. 160:1007, 1998). First, mice were sacrificed and pulmonary tissues were obtained therefrom. The tissues had been homogenized in potassium phosphate buffer, and centrifuged to obtain pellets. These pellets were sonicated in potassium phosphate buffer containing 0.5% hexadecyltrimethylammonium bromide (HTAB), and incubated at 60° C. for 120 min. After centrifugation, supernatants were obtained. […] Accordingly, the absorbance of the mixture was determined at a wavelength of 460 nm. […]
ICR mice in LPS-induced septicemia model according to Reference Example <1-1> b) were divided into five groups of 7 mice (Sham group, an experimental group-1, an experimental group-2, an experimental group-3 and a control group). […] At 24 hours after LPS had been administered, the activity of MPO, an indicator of neutrophils, in the pulmonary tissues of the mice of each group, was determined as described in Reference Example 2.

CCCCCCCCCCCCCCCCCC(=O)OCC(O)COP(=O)([O-])OCC[N+](C)(C)C (stereo not drawn) [1-stearoyl LPC, 1-stearoyl (18:0) lysophosphatidylcholine]
level of IL-8 release that had been increased by LPS in neutrophils [1]: inhibited by LPC in a concentration-dependent manner | number of intraperitoneal E. coli cells ([2]; 24 hours after injection, P<0.01): remarkably decreased | death rate due to septicemia (survival rate over time) ([2]; P<0.05): significantly suppressed | CFU ([3]; LPC conc. 12 μM in LB media): 661 ± 285 | CFU ([3]; LPC conc. 60 μM in LB media): 639 ± 304 | CFU ([3]; LPC conc. 300 μM in LB media): 611 ± 281 | in vitro direct antibacterial effects against E. coli ([3]; summary of Table 1): no in vitro direct antibacterial effects | activity of MPO in pulmonary tissues ([4]; 20 mg/kg subcutaneous (experimental group-3), p<0.01): the most excellent effects | activity of MPO in pulmonary tissues ([4]; 5, 10 and 20 mg/kg subcutaneous, 2 and 14 hours after intraperitoneal LPS 1 mg/kg, 24 hours after LPS, vs control group): suppressed in a concentration-dependent manner
